Each structure is given as a SMILES string.

The nature of this data set: gradient 5% acetonitrile 3 min, to 50% in 2 min, to 85% in 15 min, held 3 min, 100 µL/min. The conditions noted are these: column: Zorbax Extend-C18 2.1 x 50 mm; eluents: water / acetonitrile, 0.1% formic acid. Summed up: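 Pure standards were analyzed in mixtures of ~100 molecules using HPLC coupled to a quadrupole time-of-flight mass spectrometer, in both positive and negative ionization mode. Separation used a Zorbax Extend-C18 column (2.1 × 50 mm, 1.8 μm) at 100 μL/min, with water and acetonitrile each containing 0.1% formic acid. Dead and dwell volumes were 40 μL and 900 μL, and data were collected over 3 months. Retention time was read from computationally picked adduct peaks, each inspected manually.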
As for `Cc1cc(NS(=O)(=O)c2cc3n(c2)CCCN(C)C3=O)ccc1F`, the RP-LC retention time turned out to be 696 s. Take `Cn1cc(CC(=O)NCC2CCCCC2)c2cccnc21`: the RP-LC retention time is 734 s. The figure for `Cc1nn(-c2ccc(-c3ccccc3)nn2)c(C)c1S(=O)(=O)N1CCN(C(C)C)CC1` is 683 s; for `COc1cccc(Cn2c(=O)c3sccc3n(Cc3nc(-c4ccccc4)no3)c2=O)c1` it is 1000 s. Regarding `Cc1cc(Nc2ccccc2)nc(N2CCN(C(=O)Nc3cccc(Cl)c3)CC2)n1`, the RP-LC retention time was found to be 763 s. The compound `O=C(NCc1cccnc1-c1ccc(F)cc1)c1cc(F)ccc1Cl` returned an RP-LC retention time of 700 s. `O=C(c1sc2cc(F)ccc2c1Cl)N1CCN(c2ccccn2)CC1` came in with an RP-LC retention time of 693 s. Regarding `Cc1cccc(CNC(=O)C2(C)Cn3cnc(C(=O)N4CCOCC4)c3C(=O)N2C2CC2)c1` (configuration not stated), the RP-LC retention time came to 618 s. Take `Cc1cc(NC(=O)N2CCCC(C)(C(=O)NCc3ccc(F)cc3)C2)ccc1Br` (configuration not stated): the RP-LC retention time is 1050 s.

`CN1C(=O)c2cc(C(=O)NCc3ccccc3)nn2CC1(C)C(=O)NC1CCCCC1` (configuration not stated) displayed an RP-LC retention time of 761 s. The figure for `Cc1nc(C(=O)N2CCC[C@H]2Cc2nnc(-c3ccccc3)o2)c(-c2ccccc2F)s1` is 1050 s; for `CC(C)c1nnc(C2CCN(C(=O)c3ccc(S(=O)(=O)N4CCOCC4)cc3)CC2)o1` it is 659 s. In the case of `Cc1cc(N2CCN(C)CC2)nc2ccc(NC(=S)NCc3ccco3)cc12`, the RP-LC retention time came out at 564 s. `Cc1cc(N2CCN(C)CC2)nc2ccc(NC(=O)CCC(=O)NCCC(C)C)cc12` displayed an RP-LC retention time of 556 s.

The compound `CCCn1cc(CCNS(=O)(=O)c2c(C)cc(C)cc2C)c2cccnc21` registered an RP-LC retention time of 962 s. Consider `CCOc1ccc(CNS(=O)(=O)c2ccc3c(c2)CCCC(=O)N3)cc1`, for which the RP-LC retention time was 744 s. As for `Cc1cccc2c(=O)n(C3CCN(S(=O)(=O)c4cc(F)cc(F)c4)CC3)cnc12`, the figure is 1000 s. In the case of `Cc1ccc(CNC(=O)c2ccc(-c3cccs3)nc2)o1`, the RP-LC retention time came to 869 s. The figure for `CCOCCCNC(=O)Cn1cccc1-c1nc(-c2ccc(Cl)cc2)cs1` is 1060 s. As for `Cn1c(C(=O)NCCc2ccccc2)cc2sc(Cl)cc21`, the figure is 1050 s; as for `COc1cccc(N2CCN(C(=O)c3ccc4c(c3)NC(=O)C3CCCCN43)CC2)c1` (configuration not stated), 592 s; as for `COc1ccc(C)cc1NC(=O)NC1CCN(c2ccc(F)cc2)C1=O` (configuration not stated), 855 s.

With `COc1ccccc1Nc1nc(-c2ccc(C)cc2)c(C)s1`, the RP-LC retention time is 1210 s. The figure for `CC(C)Cn1nc2n(c1=O)CCN(S(=O)(=O)c1ccc(C(C)(C)C)cc1)CC2` is 631 s; for `O=C(Cn1cccc1-c1nnc(-c2ccccc2)o1)N1CCN(c2ccc(F)cc2)CC1` it is 996 s.

Regarding `Cc1nc(-c2ccc(-c3noc(C(NS(=O)(=O)c4ccccc4)C(C)C)n3)cc2)cs1` (configuration not stated), the RP-LC retention time is 1120 s. The figure for `CCc1cccc(NC(=O)C2CCCN(c3cc(=O)n(C)c(=O)n3C)C2)c1` (configuration not stated) is 794 s; for `COc1ccc(NC(=O)Cn2c(C)cc(-c3nnc(-c4ccccc4)o3)c2C)cc1` it is 927 s. With `CCc1nnc(-c2cn(CC(=O)Nc3ccc4c(c3)OCCO4)c3ccccc23)o1`, the RP-LC retention time worked out at 817 s.

`Cc1ccnc(NC(=O)C2CCCN(S(=O)(=O)c3c[nH]c(C(=O)N4CCCC4)c3)C2)c1` (configuration not stated) had an RP-LC retention time of 614 s. As to `O=C(NCC1(c2cccs2)CCOCC1)c1cc(=O)c2ccccc2o1`, the RP-LC retention time came out at 716 s. `Cc1cccc(C)c1Nc1c(-c2ccc(Cl)cc2)nc2cnccn12`: the RP-LC retention time turned out to be 1030 s.
